# According to patent US10040838B2, “CRHR2 peptide agonists and uses thereof” (JANSSEN PHARMACEUTICA NV, priority 2008, dated 2018):
# Residues, ends and D or L forms follow the SMILES beside them. *: point of attachment. Succinimide(1-Et,3-yl) = CCN1C(=O)CC(*)C1=O
# Target: T1, human CRHR2 (Homo sapiens, UniProt Q13324)
# T1 construct: expressed in transfected cells
# T1 sequence (Q13324 1-411): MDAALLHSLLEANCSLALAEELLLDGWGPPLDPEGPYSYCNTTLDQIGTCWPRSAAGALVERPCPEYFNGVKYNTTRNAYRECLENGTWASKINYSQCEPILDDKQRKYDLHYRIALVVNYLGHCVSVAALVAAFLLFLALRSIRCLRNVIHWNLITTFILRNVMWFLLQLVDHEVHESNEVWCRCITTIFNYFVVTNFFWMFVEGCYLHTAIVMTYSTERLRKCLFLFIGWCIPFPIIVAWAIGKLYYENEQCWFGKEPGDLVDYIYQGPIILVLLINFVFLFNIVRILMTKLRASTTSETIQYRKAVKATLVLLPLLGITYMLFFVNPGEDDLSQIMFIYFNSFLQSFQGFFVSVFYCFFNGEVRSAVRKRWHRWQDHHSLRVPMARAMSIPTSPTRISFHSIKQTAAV
# Assay: cAMP assay in h-CRHR2 transfected SK-N-MC cells
# Assay type: cell-based
# Conditions: Table 13; h-SCP control pA50 minus test compound pA50 within same assay batch
# Method: The concentration required for 50% maximum effect (A50) was 0.4 nM.
# Human CRHR1 (accession number X72304) or CRHR2 (accession number U34587) were cloned into pcDNA3.1/Zeo expression vector and stably transfected into SK-N-MC cells by electroporation. Cells were maintained in MEM w/Earl's Salt with 10% FBS, 50 I.U. penicillin, 50 μg/ml streptomycin, 2 mM L-glutamine, 1 mM sodium pyruvate and 0.1 mM nonessential amino acids, 600 μg/ml G418. Cells were grown at 37° C. in 5% CO2.
# Cells were plated in 96-well tissue culture dishes (Biocoat from BD Biosciences) overnight at 50,000 cell/well. Cells were washed with PBS then resuspended in DMEM F-12 without phenol red, containing 10 μM isobutylmethylxanthine (IBMX). Cells were incubated with the peptides at concentrations ranging from 1 pM to 10 μM for 60 min at 37° Celsius. […] Forskolin (10 μM), a direct stimulant of adenylate cyclase, was used as positive control. The assays were stopped by the addition of 0.5 M HCl and mixing by orbital rotation for 2 h at 4° Celsius.
# To assess the activity of the inventive peptide at the CRHR2, an intracellular cAMP measurement test using a Flash plate radioactive assay (Catalog No. Cus56088; Perkin Elmer, MA, U.S.A.) was employed.
# Transfected SK-N-MC cells were plated in 96-well Biocoat tissue culture dishes (BD Biosciences, San Jose, Calif., U.S.A) overnight at 50,000 cell/well. Cells were first washed with PBS and then suspended with DMEM/F-12 without phenol red, containing […]. Suspended cells were transferred into a 96-well flash plate coated with scintillant fluid. Cells were incubated with peptides ranging from […], for 60 min, at 37° Celsius. Forskolin at 10 μM was used as positive control. After ligand stimulation, cells were lysed by the addition of 0.5M HCl and mixed by orbital rotation for 2 h at 4° Celsius in order to release intracellular cAMP into the media.
# Media containing released intracellular cAMP was transferred to a 96-well flash plate coated with scintillant fluid containing an anti-cAMP antibody. In this assay, intracellular cAMP competes with ^125I-labeled cAMP binding to the antibody. To generate a standard curve, cAMP ranging from 2.5 to 250 pmoles/ml was included in the experiment. [^125I]-cAMP was measured on a TopCount scintillation counter (Perkin Elmer, MA, U.S.A).
# Individual agonist concentration-response curve data were fitted to the Hill equation, see formula below, using GraphPad Prism (Graphpad Software, La Jolla, Calif., U.S.A.), to provide estimates of agonist concentration needed to generate one-half maximal response (A50), and the maximal asymptote (α) and Hill slope (nH) parameters. In this equation, [A] is the agonist concentration and E is the measured effect:
# For display purposes the mean fitted parameter estimates were used to generate a single E/[A] curve shown superimposed on the mean experimental data. Potency estimates for agonists, pA50, are expressed as the negative logarithm of the midpoint of each curve and listed with their standard error of measurement (SEM). Logarithm base 10 of the agonist dose ratio (Log DR) values were calculated by subtraction of the test compound pA50 value from the corresponding h-SCP (SEQ ID NO:1) control pA50 value within the same assay batch. The SEM values of the Log DR values are given by the square root of the sum of the squared SEM values of the h-SCP (SEQ ID NO:1) control and test compound pA50 values.
# Human and rat peptides (see Table 10) were used on the stimulation of h-CRHR1 or h-CRHR2 transfected SK-N-MC cells in the cAMP flash plate assay. Peptides were incubated for 1 hr at 37° Celsius. Curves were calculated using non-linear regression sigmoidal concentration-response analysis calculation in GraphPad Prism. The so obtained pA50 values are shown in Table 11 in addition to literature values. […]
row,SMILES,Log DR
1,"CC[C@H](C)[C@H](NC(=O)[C@H](CC(N)=O)NC(=O)[C@H](Cc1ccccc1)NC(=O)[C@H](CC(C)C)NC(=O)[C@H](CC(C)C)NC(=O)[C@H](CC(N)=O)NC(=O)[C@H](CCSC)NC(=O)[C@@H](NC(=O)[C@H](CC(N)=O)NC(=O)[C@@H](NC(=O)[C@@H]1CCCN1C(=O)[C@@H](NC(=O)[C@H](CC(=O)O)NC(=O)[C@H](CC(C)C)NC(=O)[C@H](CO)NC(=O)[C@H](CC(C)C)NC(=O)[C@@H](NC(=O)[C@H](Cc1ccccc1)NC(=O)[C@H](CCCCN)NC(=O)[C@@H](N)[C@@H](C)O)[C@@H](C)O)C(C)C)[C@@H](C)O)[C@@H](C)CC)C(=O)N[C@@H](C)C(=O)N[C@@H](CCCCN)C(=O)N[C@@H](C)C(=O)N[C@@H](CCCCN)C(=O)N[C@@H](CC(N)=O)C(=O)N[C@@H](CC(C)C)C(=O)N[C@@H](CCCNC(=N)N)C(=O)N[C@@H](C)C(=O)N[C@@H](CCC(N)=O)C(=O)N[C@@H](C)C(=O)N[C@@H](C)C(=O)N[C@@H](C)C(=O)N[C@@H](CC(N)=O)C(=O)N[C@@H](C)C(=O)N[C@@H](Cc1c[nH]cn1)C(=O)N[C@@H](CC(C)C)C(=O)N[C@@H](CCSC)C(=O)N[C@@H](C)C(=O)N[C@@H](CCC(N)=O)C(=O)N[C@@H](CSC1CC(=O)N(CC)C1=O)C(N)=O (stereo partly shown) [SEQ ID NO: 42, TKFTLSLDVPTNIMNLLFNIAKAKNLRAQAAANAHLMAQC(-NES)-NH2] (H-TKFTLSLDVPTNIMNLLFNIAKAKNLRAQAAANAHLMAQC(Succinimide(1-Et,3-yl))-NH2; N-terminus assumed)",~1.72
2,"CC[C@H](C)[C@H](NC(=O)[C@H](CCC(N)=O)NC(=O)[C@H](C)NC(=O)[C@H](CCSC)NC(=O)[C@H](CC(C)C)NC(=O)[C@H](CSC1CC(=O)N(CC)C1=O)NC(=O)[C@H](C)NC(=O)[C@H](CC(N)=O)NC(=O)[C@H](C)NC(=O)[C@H](C)NC(=O)[C@H](C)NC(=O)[C@H](CCC(N)=O)NC(=O)[C@H](C)NC(=O)[C@H](CCCNC(=N)N)NC(=O)[C@H](CC(C)C)NC(=O)[C@H](CC(N)=O)NC(=O)[C@H](CCCCN)NC(=O)[C@H](C)NC(=O)[C@H](CCCCN)NC(=O)[C@H](C)NC(=O)[C@@H](NC(=O)[C@H](CC(N)=O)NC(=O)[C@H](Cc1ccccc1)NC(=O)[C@H](CC(C)C)NC(=O)[C@H](CC(C)C)NC(=O)[C@H](CC(N)=O)NC(=O)[C@H](CCSC)NC(=O)[C@@H](NC(=O)[C@H](CC(N)=O)NC(=O)[C@@H](NC(=O)[C@@H]1CCCN1C(=O)[C@@H](NC(=O)[C@H](CC(=O)O)NC(=O)[C@H](CC(C)C)NC(=O)[C@H](CO)NC(=O)[C@H](CC(C)C)NC(=O)[C@@H](NC(=O)[C@H](Cc1ccccc1)NC(=O)[C@H](CCCCN)NC(=O)[C@@H](N)[C@@H](C)O)[C@@H](C)O)C(C)C)[C@@H](C)O)[C@@H](C)CC)[C@@H](C)CC)C(N)=O (stereo partly shown) [SEQ ID NO: 43, TKFTLSLDVPTNIMNLLFNIAKAKNLRAQAAANAC(-NES) LMAQI-NH2] (H-TKFTLSLDVPTNIMNLLFNIAKAKNLRAQAAANAC(Succinimide(1-Et,3-yl))LMAQI-NH2; N-terminus assumed)",−0.32
3,"CC[C@H](C)[C@H](NC(=O)[C@H](CCC(N)=O)NC(=O)[C@H](C)NC(=O)[C@H](CCSC)NC(=O)[C@H](CC(C)C)NC(=O)[C@H](Cc1c[nH]cn1)NC(=O)[C@H](C)NC(=O)[C@H](CSC1CC(=O)N(CC)C1=O)NC(=O)[C@H](C)NC(=O)[C@H](C)NC(=O)[C@H](C)NC(=O)[C@H](CCC(N)=O)NC(=O)[C@H](C)NC(=O)[C@H](CCCNC(=N)N)NC(=O)[C@H](CC(C)C)NC(=O)[C@H](CC(N)=O)NC(=O)[C@H](CCCCN)NC(=O)[C@H](C)NC(=O)[C@H](CCCCN)NC(=O)[C@H](C)NC(=O)[C@@H](NC(=O)[C@H](CC(N)=O)NC(=O)[C@H](Cc1ccccc1)NC(=O)[C@H](CC(C)C)NC(=O)[C@H](CC(C)C)NC(=O)[C@H](CC(N)=O)NC(=O)[C@H](CCSC)NC(=O)[C@@H](NC(=O)[C@H](CC(N)=O)NC(=O)[C@@H](NC(=O)[C@@H]1CCCN1C(=O)[C@@H](NC(=O)[C@H](CC(=O)O)NC(=O)[C@H](CC(C)C)NC(=O)[C@H](CO)NC(=O)[C@H](CC(C)C)NC(=O)[C@@H](NC(=O)[C@H](Cc1ccccc1)NC(=O)[C@H](CCCCN)NC(=O)[C@@H](N)[C@@H](C)O)[C@@H](C)O)C(C)C)[C@@H](C)O)[C@@H](C)CC)[C@@H](C)CC)C(N)=O (stereo partly shown) [SEQ ID NO: 44, TKFTLSLDVPTNIMNLLFNIAKAKNLRAQAAAC(-NES)AH LMAQI-NH2] (H-TKFTLSLDVPTNIMNLLFNIAKAKNLRAQAAAC(Succinimide(1-Et,3-yl))AHLMAQI-NH2; N-terminus assumed)",~1.97
4,"CC[C@H](C)[C@H](NC(=O)[C@H](CCC(N)=O)NC(=O)[C@H](C)NC(=O)[C@H](CCSC)NC(=O)[C@H](CC(C)C)NC(=O)[C@H](Cc1c[nH]cn1)NC(=O)[C@H](C)NC(=O)[C@H](CC(N)=O)NC(=O)[C@H](CSC1CC(=O)N(CC)C1=O)NC(=O)[C@H](C)NC(=O)[C@H](C)NC(=O)[C@H](CCC(N)=O)NC(=O)[C@H](C)NC(=O)[C@H](CCCNC(=N)N)NC(=O)[C@H](CC(C)C)NC(=O)[C@H](CC(N)=O)NC(=O)[C@H](CCCCN)NC(=O)[C@H](C)NC(=O)[C@H](CCCCN)NC(=O)[C@H](C)NC(=O)[C@@H](NC(=O)[C@H](CC(N)=O)NC(=O)[C@H](Cc1ccccc1)NC(=O)[C@H](CC(C)C)NC(=O)[C@H](CC(C)C)NC(=O)[C@H](CC(N)=O)NC(=O)[C@H](CCSC)NC(=O)[C@@H](NC(=O)[C@H](CC(N)=O)NC(=O)[C@@H](NC(=O)[C@@H]1CCCN1C(=O)[C@@H](NC(=O)[C@H](CC(=O)O)NC(=O)[C@H](CC(C)C)NC(=O)[C@H](CO)NC(=O)[C@H](CC(C)C)NC(=O)[C@@H](NC(=O)[C@H](Cc1ccccc1)NC(=O)[C@H](CCCCN)NC(=O)[C@@H](N)[C@@H](C)O)[C@@H](C)O)C(C)C)[C@@H](C)O)[C@@H](C)CC)[C@@H](C)CC)C(N)=O (stereo partly shown) [SEQ ID NO: 45, TKFTLSLDVPTNIMNLLFNIAKAKNLRAQAAC(-NES)NAH LMAQI-NH2] (H-TKFTLSLDVPTNIMNLLFNIAKAKNLRAQAAC(Succinimide(1-Et,3-yl))NAHLMAQI-NH2; N-terminus assumed)",−0.01
